# Assay results: US8372380B2, “In vivo imaging of sulfotransferases” (The Regents of the University of California, priority 2007, dated 2013)
# How the values were obtained:
# sulfotransferase SULT1A1 [1] = target: T1, sulfotransferase SULT1A1 (Rattus norvegicus, UniProt P17988); test: In vivo microPET imaging of sulfotransferase activity and inhibition in rat; design: species or system Sprague-Dawley rat
# T1 construct: from tissue; host or cells: living Sprague-Dawley rat (brain, chest, abdomen)
# Description: (§1) A bolus of a radiolabeled tracer is administered intravenously to a non-human primate, rodent, or other non-human mammal, and the distribution of tracer transport activity is followed by radiographic means, e.g., PET, microPET and/or SPECT. For PET, an intravenous dose of the tracer contains ˜0.1-3 mCi/kg (body weight) dissolved in <1 ml of 10% ethanol in saline. The identity of each organ and tissue taking up the tracer can be confirmed by CT scans. Scans can be conducted both with and without administering one or more pharmacological agents, e.g., 2,6-dichloro-4-nitrophenol, quercitin, curcumin, etc.
# FIG. 7 depicts in vivo microPET imaging of sulfotransferase activity and inhibition in a male, Sprague-Dawley rat suffering from renal hypertension, chronic progressive nephropathy, and lung inflammation, using 4-[^18F]-fluoro-3-nitrophenol as a substrate and 2,6-dichloro-4-nitrophenol as an inhibitor. 4-[^18F]-fluoro-3-nitrophenol was administered as a bolus injection (0.5 to 2.0 mCi) and the rat brain was scanned dynamically for 60 min. Subsequently, the chest was scanned for 5 min., followed by a 5 min. scan of the abdomen.
# sulfotransferase SULT1E1 [2] = test: In vivo microPET imaging of SULT1E1 expression in rats; design: species or system Sprague-Dawley rats; conditions: images 15-25 min after injection
# Description: as §1
# (§2) FIG. 5 depicts in vivo microPET imaging of sulfotransferase SULT1E1 expression in healthy and inflamed lungs in 8-9 month old male Sprague-Dawley rats, using the substrate 2-(4′-([^11C]-methylamino)phenyl)-6-hydroxybenzothiazole. On the left are shown the chest and upper abdomen of a healthy control rat; on the right is a rat suffering from renal hypertension, chronic progressive nephropathy, and lung inflammation. Both animals were injected with 2.0-2.5 mCi of activity. The images shown were acquired over the period of 15-25 min after injection. […] Warmer colors represent higher levels of tracer uptake.
# sulfotransferase SULT1E1 [3] = target: T2, sulfotransferase SULT1E1 (Homo sapiens, UniProt P49888); test: In vivo PET imaging of SULT1E1 expression in humans; conditions: PET 20-45 minutes after injection
# T2 construct: from tissue; host or cells: living human subjects (lungs, liver, kidneys)
# T2 sequence (P49888 1-294): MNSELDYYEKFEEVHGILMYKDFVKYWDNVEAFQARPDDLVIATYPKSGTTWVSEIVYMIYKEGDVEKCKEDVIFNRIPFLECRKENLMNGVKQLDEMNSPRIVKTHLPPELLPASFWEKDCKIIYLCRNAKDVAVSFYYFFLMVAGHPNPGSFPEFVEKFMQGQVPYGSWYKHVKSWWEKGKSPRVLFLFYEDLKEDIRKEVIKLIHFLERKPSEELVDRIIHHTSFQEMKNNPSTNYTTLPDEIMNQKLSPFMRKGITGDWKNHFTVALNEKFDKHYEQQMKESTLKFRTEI
# Description: A bolus of a radiolabeled tracer is administered to a human subject by intravenous injection, and its uptake into a tumor (in the case of cancer), one or more organs of interest, and/or other tissues of the body is followed radiographically. For a 50-70 kg person, 10 mCi of an appropriate tracer from Table 1 or 2 (e.g.) is dissolved in <10 ml 10% ethanol in saline and is injected intravenously, and the distribution of the tracer is followed dynamically with PET for up to 2 hours (multiple whole-body scans at different time intervals or dynamic PET scan of a specific organ). SULT activity in organs and tissues is determined using tracer kinetic modeling from the PET determined tracer uptake data. The anatomical location of tracer uptake in both normal subjects and cancer patients can be determined using CT scans.
# FIG. 6 depicts in vivo PET imaging of sulfotransferase SULT1E1 expression in two adult male humans. […] Increased SULT1E1 expression associated with lung inflammation caused by smoking is clearly visible in the lungs of the smoker. Both subjects were scanned with PET 20-45 minutes after being injected with the tracer 2-(4′-([^11C]-methylamino)phenyl)-6-hydroxybenzothiazole. The smoker received a dose of 10.5 mCi, and the non-smoker received 10.0 mCi. The images were normalized by dividing the signal values with dose injected per kg of body weight.
# [4] = rat brain; Mathis et al., 2004; cited from earlier work
# SULT1A1 = target: T3, SULT1A1 (Homo sapiens, UniProt P50225); test: Substrate sulfonation assay, SULT1A1; assay type: biochemical; conditions: in vitro sulfonation
# T3 construct: purchased Sigma; host or cells: sf-9 insect cells (baculovirus)
# Description: (§3) β-Naphthol (BN, a reference control), para-nitrophenol (PNP), estradiol (E2), dehydroepiandrosterone (DHEA), dopamine, dithiothreitol (DTT), and MgCl2 were purchased from Sigma (St. Louis, Mo.). Cytosolic extract of sf-9 insect cells infected with a baculovirus containing SULT cDNAs (SULT1A1, SULT1A3, SULT1E1, SULT2A1) were also purchased from Sigma. [^35S]-3′-Phosphoadenosine 5′-Phosphosulfate (PAPS)(1-3 Ci/mmol) was purchased from Perkin Elmer (Waltham, Mass.). Aluminum-backed silica TLC plates were purchased from Whatman.
# (§4) Substrate sulfonation assays were performed using cytosolic sulfotransferases SULT1A1, SULT1A3, SULT1E1, and SULT2A1. Enzyme kinetic parameters were determined by using substrate concentration curves. The sulfonation reaction was carried out using [^35S]-PAPS as the sulfate donor, and the reaction mixture was analyzed using a thin-layer chromatography (TLC) method described in literature (Falany et al., 2006). […] TLC plates were exposed on digital autoradiography plates for 2 hrs and read in with a Fuji BAS-5000 digital autoradiography plate reader. The results were quantitated with the software provided with the scanner. […] Vials were counted using MP-Ecolite+ LS fluid and a Packard Tricarb 2300TR LSC for 5 min per vial. Reactions were monitored for linearity with time and enzyme concentration to ensure the enzyme was the limiting factor. […]
# [5] = Plasma metabolite analysis of tracer in rats; assay type: in vivo, Sprague-Dawley rats; conditions: rat plasma, after 10-15 min
# Description: as §2
# Metabolite analysis was performed using reverse phase C-18 TLC plates and a mixture of methanol, acetic acid and water (80:5:15, respectively). Plasma was de-proteinated with addition of an equal volume of methanol. The supernatant was spotted on the plates and the plates developed in the mobile phase. The analysis of the plates was performed as described above in the description of the sulfonation assays (Ex. 1-25). Metabolites were identified as follows: […] samples of plasma were mixed with 500-1000 U of either […] (to remove the sulfonated metabolite) or glucoronidase (to remove glucoronidated metabolite). […] The supernatants were analyzed as described above and the results compared with the results for un-treated plasma.
# SULT1E1 = target: T4, SULT1E1 (Homo sapiens, UniProt P49888); test: Substrate sulfonation assay, SULT1E1; assay type: biochemical; conditions: in vitro sulfonation
# T4 construct: purchased Sigma; host or cells: sf-9 insect cells (baculovirus)
# T4 sequence (P49888 1-294): T2 sequence (P49888 1-294)
# Description: as §3, §4
# sulfotransferase SULT1A1 [6] = target: T5, sulfotransferase SULT1A1 (Homo sapiens, UniProt P50225); test: Inhibition of SULT1A1 sulfonation of para-nitrophenol (PNP); assay type: biochemical; conditions: inhibition of SULT1A1 sulfonation of 4-nitrophenol; 37° C., 15 min, [35S]-PAPS
# T5 construct: purchased Sigma; host or cells: sf-9 insect cells (baculovirus)
# Description: as §3
# Substrate sulfonation assays were performed using cytosolic sulfotransferases SULT1A1, SULT1A3, SULT1E1, and SULT2A1. Enzyme kinetic parameters were determined by using substrate concentration curves. The sulfonation reaction was carried out using [^35S]-PAPS as the sulfate donor, and the reaction mixture was analyzed using a thin-layer chromatography (TLC) method described in literature (Falany et al., 2006). Reaction mixtures consisted of 10 μL of substrates, originally dissolved in dimethyl sulfoxide and diluted to 1% with Tris-HCl buffer; 50 mM Tris-HCl buffer, pH 7.4; 0.1% bovine serum albumin; 7.5 mM DTT; and 1 μM [^35S]-PAPS in the final volume of 50 μL. The final concentration of dimethyl sulfoxide was kept at 0.2%. Reactions with SULT1E1 and SULT2A1 were supplemented with 7 mM MgCl2; reactions with SULT1A3 included 1 mM pargyline. Control reactions were performed under identical conditions without addition of substrates. Sulfonation reactions were carried out at 37° C. for 15 min. Enzymatic activity was terminated by precipitation with 50 μL of ice cold methanol and cooling the mixture at −20° C. Subsequently, 20 μL aliquots of the supernatant were spotted on silica gel TLC plates and were developed in t-butanol:acetic acid:water (8:1:1 by volume). Sulfonated products (Rf=0.66±0.05) were well separated from unreacted [^35S]PAPS, which was retained at the origin. TLC plates were exposed on digital autoradiography plates for 2 hrs and read in with a Fuji BAS-5000 digital autoradiography plate reader. The results were quantitated with the software provided with the scanner. Spots were localized and the silica gel was scraped into liquid scintillation vials. Vials were counted using MP-Ecolite+ LS fluid and a Packard Tricarb 2300TR LSC for 5 min per vial. Reactions were monitored for linearity with time and enzyme concentration to ensure the enzyme was the limiting factor.
# In vitro inhibition reactions were performed using the standard SULT1A1 substrate, para-nitrophenol (PNP), against various 4′-substituted 2-phenyl-6-hydroxybenzothiazoles shown in Table 3. PNP was dissolved in 50 mM Tris-HCl buffer (pH 7.4), and inhibitors were dissolved in dimethyl sulfoxide and diluted to 1% dimethyl sulfoxide concentration with the Tris-HCl buffer. […]
# brain SULT1A enzymes = conditions: Vietri et al., 2002b, read-out: IC50 for blocking sulfonation of R(−)-apomorphine; cited from earlier work
# T5 sequence (P50225 whole entry): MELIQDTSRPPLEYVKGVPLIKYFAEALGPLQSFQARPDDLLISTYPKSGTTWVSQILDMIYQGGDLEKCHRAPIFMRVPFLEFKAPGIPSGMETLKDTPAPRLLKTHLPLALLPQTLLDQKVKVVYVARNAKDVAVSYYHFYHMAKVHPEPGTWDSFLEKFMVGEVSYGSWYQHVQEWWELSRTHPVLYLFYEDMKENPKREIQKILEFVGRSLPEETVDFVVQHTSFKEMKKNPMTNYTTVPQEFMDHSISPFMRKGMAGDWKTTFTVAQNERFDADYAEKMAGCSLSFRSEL
# T1 sequence (P17988 whole entry): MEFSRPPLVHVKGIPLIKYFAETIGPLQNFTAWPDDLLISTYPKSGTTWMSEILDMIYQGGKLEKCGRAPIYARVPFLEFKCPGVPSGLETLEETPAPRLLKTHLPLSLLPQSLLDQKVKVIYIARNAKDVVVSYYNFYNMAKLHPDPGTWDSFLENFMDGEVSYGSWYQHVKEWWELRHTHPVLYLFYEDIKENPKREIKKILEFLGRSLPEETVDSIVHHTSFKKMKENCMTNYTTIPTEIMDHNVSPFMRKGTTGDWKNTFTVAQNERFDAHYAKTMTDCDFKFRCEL
# T3 sequence (P50225 whole entry): as the sequence (P50225 whole entry) above
compound,measurement,setting,value
"O=[N+]([O-])c1cc(Cl)c(O)c(Cl)c1 [2,6-dichloro-4-nitrophenol]",effect on SULT1A1 activity in vivo (microPET),sulfotransferase SULT1A1 [1]; 5 mg/Kg at the time of the 4-[18F]-fluoro-3-nitrophenol bolus injection,inhibitory effect on SULT1A1 activity
[11CH3]Nc1ccc(-c2nc3ccc(O)cc3s2)cc1 [2-(4′-([^11C]-methylamino)phenyl)-6-hydroxybenzothiazole],tracer uptake in lungs,sulfotransferase SULT1E1 [2]; healthy control rat,indistinguishable from the background
same,tracer uptake in lungs,sulfotransferase SULT1E1 [2]; rat with lung inflammation,increased uptake
same,tracer activity in liver,sulfotransferase SULT1E1 [2]; rats,high level of activity
same,tracer activity in liver and kidneys,sulfotransferase SULT1E1 [3],high level of activity
same,tracer uptake in lungs,sulfotransferase SULT1E1 [3]; versus background (muscles),increased level of uptake compared with the background
same,sulfonation in brain in vivo,[4],sulfonated in the rat brain in vivo
same,substrate for SULT1A1,SULT1A1,not a substrate for SULT1A1
same,fraction of tracer in sulfated form in plasma,[5],~90%
same,substrate for SULT1E1,SULT1E1,"good marker of sulfotransferases, most specifically SULT1E1"
"O=[N+]([O-])c1cc(O)ccc1[18F] [4-[^18F]-fluoro-3-nitrophenol, 4-[^18F]Fluoro-3-nitrophenol]",substrate for SULT1A1 in vivo (microPET),"sulfotransferase SULT1A1 [1]; rat, bolus injection 0.5 to 2.0 mCi",is a substrate for the sulfotransferase SULT1A1
CNc1ccc(-c2nc3ccc(O)cc3s2)cc1 [Compound 14],Ki,sulfotransferase SULT1A1 [6],0.0051 ± 0.0003 µM
COc1ccc(-c2nc3ccc(O)cc3s2)cc1 [Compound 17],Ki,sulfotransferase SULT1A1 [6],0.024 ± 0.002 µM
CC(=O)Nc1ccc(-c2nc3ccc(O)cc3s2)cc1 [Compound 18],Ki,sulfotransferase SULT1A1 [6],0.1 ± 0.02 µM
Oc1ccc2nc(-c3ccc(F)cc3)sc2c1 [Compound 19],Ki,sulfotransferase SULT1A1 [6],0.14 ± 0.01 µM
O=c1c(O)c(-c2ccc(O)c(O)c2)oc2cc(O)cc(O)c12 [quercitin],IC50,brain SULT1A enzymes,0.016 ± 0.0023 µM
